Results from publication PMC8619046, “ABCB1 and ABCG2 Control Brain Accumulation and Intestinal Disposition of the Novel ROS1/TRK/ALK Inhibitor Repotrectinib, While OATP1A/1B, ABCG2, and CYP3A Limit Its Oral Availability” (Pharmaceutics, 2021).

How the values were obtained:
human ABCB1 [1] = molecular target: T1, human ABCB1 (Homo sapiens, UniProt P08183); assay: Transepithelial transport, MDCK-II cells transduced with hABCB1; assay type: in vitro ADME; conditions: MDCK-MDR1, pH 7.4, MDCK-II hABCB1, 5 µM, no inhibitor, read-out: efflux transport ratio r
T1 construct: expressed in transfected cells; host or cells: MDCK-II cells stably transduced with hABCB1 cDNA (made in the authors' institute)
From the text: (§1) Polarized Madin-Darby Canine Kidney (MDCK-II) cells (ECACC 00062107) stably transduced with either human (h) ABCB1, hABCG2 or mouse (m) Abcg2 cDNA were generated in our institute between 1995–2005. The proper identity and functionality, such as highly characteristic growth and drug transporter properties, including inhibitor sensitivity, were regularly checked in these epithelial cells. Mycoplasma routinely tested negative in these cells. The passage number was 10–15 when used in the transport experiments.
(§2) Transepithelial transport experiments were performed as previously described with 12-well plates (Transwell 3414, Corning Inc., Kennebunk, ME, USA) containing microporous polycarbonate membrane filters (3.0 µm pore size, 12 mm diameter). […]
(§3) After pre-incubation with 5 µM zosuquidar (ABCB1 inhibitor) and/or 5 µM Ko143 (ABCG2/Abcg2 inhibitor) in both compartments (when appropriate) for 1 h, the transport phase was initiated (t = 0) by replacing the medium in apical and basolateral compartments with fresh DMEM with 10% FBS and the appropriate inhibitor(s), and repotrectinib at 5 µM in the donor compartment. […] The active transport ratio r, calculated by dividing the amount of apically directed drug transport by basolaterally directed drug translocation after 8 h, was used to assess active transport of repotrectinib.

human ABCB1 [2] = tested on: T2, human ABCB1; assay: as above; assay type: in vitro ADME; conditions: MDCK-MDR1, pH 7.4, with zosuquidar 5 µM, MDCK-II hABCB1, 5 µM, + zosuquidar 5 µM, read-out: efflux transport ratio r
T2 construct: expressed in transfected cells; host or cells: MDCK-II cells stably transduced with hABCB1 cDNA (made in the authors' institute)
From the text: as §1, §2, §3

T1 sequence (P08183 whole entry): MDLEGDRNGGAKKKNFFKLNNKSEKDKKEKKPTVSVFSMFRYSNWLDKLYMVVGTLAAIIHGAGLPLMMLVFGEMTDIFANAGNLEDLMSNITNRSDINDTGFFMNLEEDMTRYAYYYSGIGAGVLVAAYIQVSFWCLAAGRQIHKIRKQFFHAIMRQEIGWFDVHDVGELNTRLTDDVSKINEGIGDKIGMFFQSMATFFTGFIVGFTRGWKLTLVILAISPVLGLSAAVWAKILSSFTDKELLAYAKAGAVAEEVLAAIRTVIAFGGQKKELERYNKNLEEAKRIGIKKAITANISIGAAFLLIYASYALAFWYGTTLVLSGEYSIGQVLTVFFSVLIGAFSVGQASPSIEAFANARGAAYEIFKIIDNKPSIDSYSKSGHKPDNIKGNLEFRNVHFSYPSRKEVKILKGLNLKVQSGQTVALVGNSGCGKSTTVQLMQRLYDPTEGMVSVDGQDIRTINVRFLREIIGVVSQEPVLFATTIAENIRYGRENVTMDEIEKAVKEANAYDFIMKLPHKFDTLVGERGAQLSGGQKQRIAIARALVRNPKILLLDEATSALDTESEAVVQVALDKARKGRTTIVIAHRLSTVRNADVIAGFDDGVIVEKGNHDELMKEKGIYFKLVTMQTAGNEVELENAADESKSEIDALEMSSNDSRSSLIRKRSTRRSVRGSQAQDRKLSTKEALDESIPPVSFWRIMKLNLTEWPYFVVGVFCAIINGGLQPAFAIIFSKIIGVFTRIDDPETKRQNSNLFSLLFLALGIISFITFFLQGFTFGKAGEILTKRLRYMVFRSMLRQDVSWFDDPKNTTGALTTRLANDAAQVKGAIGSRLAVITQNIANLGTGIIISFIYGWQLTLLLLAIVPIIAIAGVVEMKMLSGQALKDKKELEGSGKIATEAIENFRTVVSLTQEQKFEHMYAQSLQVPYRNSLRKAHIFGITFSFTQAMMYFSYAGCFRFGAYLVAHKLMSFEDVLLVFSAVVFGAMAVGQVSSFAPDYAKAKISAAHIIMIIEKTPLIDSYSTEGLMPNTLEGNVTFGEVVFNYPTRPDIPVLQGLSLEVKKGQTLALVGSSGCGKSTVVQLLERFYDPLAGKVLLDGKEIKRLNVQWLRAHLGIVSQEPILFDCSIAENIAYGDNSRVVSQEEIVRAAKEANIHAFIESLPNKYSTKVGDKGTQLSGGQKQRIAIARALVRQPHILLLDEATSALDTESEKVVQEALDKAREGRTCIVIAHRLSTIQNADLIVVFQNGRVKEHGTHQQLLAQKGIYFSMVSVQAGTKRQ

Structure (SMILES): C[C@H]1CNC(=O)c2cnn3ccc(nc23)N[C@H](C)c2cc(F)ccc2O1 [repotrectinib]
- efflux ratio at 8 h, 5 µM (human ABCB1 [1]): 13.5
- efflux ratio at 8 h, 5 µM (human ABCB1 [2]): 1.1
